What was measured:
[1] = molecular target: T1, Steroid 17-alpha-hydroxylase/17,20 lyase (Homo sapiens, UniProt P05093); assay: Inhibition of CYP17 in human testicular microsomes using 17alpha-hydroxypregnenolone as substrate assessed as decrease in DHEA levels at 10 nM after 90 mins by ELISA relative to control; design: species or system Testis; details: 1.5 h
T1 sequence (P05093 whole entry): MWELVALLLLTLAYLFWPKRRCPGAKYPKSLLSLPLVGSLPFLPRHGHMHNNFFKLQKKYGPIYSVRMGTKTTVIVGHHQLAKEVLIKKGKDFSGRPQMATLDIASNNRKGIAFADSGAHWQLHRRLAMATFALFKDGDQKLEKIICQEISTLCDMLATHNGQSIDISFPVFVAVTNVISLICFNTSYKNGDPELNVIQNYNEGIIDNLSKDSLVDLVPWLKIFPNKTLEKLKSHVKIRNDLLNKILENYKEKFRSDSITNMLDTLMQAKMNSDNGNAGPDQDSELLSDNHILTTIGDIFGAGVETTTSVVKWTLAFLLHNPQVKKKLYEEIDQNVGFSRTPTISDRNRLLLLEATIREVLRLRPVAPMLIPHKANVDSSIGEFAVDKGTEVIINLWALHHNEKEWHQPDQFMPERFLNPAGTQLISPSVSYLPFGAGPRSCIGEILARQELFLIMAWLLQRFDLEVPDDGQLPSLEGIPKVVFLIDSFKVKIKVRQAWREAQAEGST

[2] = molecular target: T1, Steroid 17-alpha-hydroxylase/17,20 lyase; assay: Inhibition of CYP17 in human testicular microsomes using 17alpha-hydroxypregnenolone as substrate assessed as decrease in DHEA levels after 90 mins by ELISA; design: species or system Testis
[3] = molecular target: T2, CYP21 (steroid 21-hydroxylase) (Homo sapiens, UniProt P08686); assay: Inhibition of human CYP21 transfected in HEK293 cells assessed as decrease in conversion of progesterone to 11-deoxycorticosterone preincubated for 5 hrs followed by progesterone addition measured after 20 hrs by ELISA; assay type: cell-based; design: concentration or dose not given beside the values; details: HEK293 cells transfected with human CYP21, probe progesterone
T2 sequence (P08686 whole entry): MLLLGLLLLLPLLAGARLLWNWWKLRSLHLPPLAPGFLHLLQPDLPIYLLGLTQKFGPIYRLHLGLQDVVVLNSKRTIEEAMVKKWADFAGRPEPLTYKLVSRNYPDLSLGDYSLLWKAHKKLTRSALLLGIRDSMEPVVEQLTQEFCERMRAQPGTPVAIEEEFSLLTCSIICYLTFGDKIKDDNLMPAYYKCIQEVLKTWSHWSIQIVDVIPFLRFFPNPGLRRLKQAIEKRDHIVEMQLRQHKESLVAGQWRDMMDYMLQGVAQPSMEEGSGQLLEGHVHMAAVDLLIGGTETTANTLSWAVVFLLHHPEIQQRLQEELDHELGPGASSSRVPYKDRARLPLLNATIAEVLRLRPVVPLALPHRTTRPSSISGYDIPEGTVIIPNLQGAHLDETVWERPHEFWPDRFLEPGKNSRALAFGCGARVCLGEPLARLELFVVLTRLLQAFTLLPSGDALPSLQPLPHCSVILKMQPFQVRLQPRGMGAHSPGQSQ

[4] = Half life in human liver microsomes at 1 uM by LC-MS/MS analysis

Row | SMILES | inhibition at 0.01 µM [1] | further results
1 | COc1cncc(C2=CC[C@H]3[C@@H]4CCC5=CCN(C)CC[C@]5(C)[C@H]4CC[C@]23C)c1 | 1 to 50% | –
2 | CCCOc1cncc(C2=CC[C@H]3[C@@H]4CCC5=CCN(C)CC[C@]5(C)[C@H]4CC[C@]23C)c1 | 1 to 50% | –
3 | CN1CC[C@@]2(C)C(=CC1=O)CC[C@@H]1[C@@H]2CC[C@]2(C)C(n3cnc4ccccc43)=CC[C@@H]12 | 1 to 50% | –
4 | C[C@]12CC[C@H]3[C@@H](CC[C@H]4CNC(=O)CC[C@@]43C)C1=CC=C2c1cccnc1 | 50 to 80% | –
5 | C[C@]12CC[C@H]3[C@@H](CCC4=CC(=O)NCC[C@@]43C)C1=CC=C2c1cccnc1 | 50 to 80% | IC50 [2]: ≤ 11 nM
6 | Cc1cncc(C2=CC[C@H]3[C@@H]4CCC5=CC(=O)N(C)CC[C@]5(C)[C@H]4CC[C@]23C)c1 | 50 to 80% | IC50 [2]: ≤ 11 nM
7 | COc1cncc(C2=CC=C3[C@@H]4CC=C5C[C@@H](OC(C)=O)CC[C@]5(C)[C@H]4CC[C@]23C)c1 | ≥ 80% | IC50 [2]: ≤ 11 nM
8 | C[C@]12CC[C@H]3[C@@H](CC[C@H]4CNC(=O)CC[C@@]43C)C1=CC=C2n1ccnn1 | 1 to 50% | –
9 | CC(=O)O[C@H]1CC[C@@]2(C)[C@@H](CC[C@H]3C4=CC=C(n5ccnc5)[C@@]4(C)CC[C@@H]32)C1 | ≥ 80% | IC50 [2]: ≤ 11 nM
10 | CC(=O)O[C@H]1CC[C@@]2(C)[C@@H](CC[C@H]3C4=CC=C(c5cccnc5)[C@@]4(C)CC[C@@H]32)C1 | ≥ 80% | –
11 | C[C@]12CC[C@H]3[C@@H](CC[C@H]4CNC(=O)CC[C@@]43C)C1=CC=C2n1ccnc1 | 50 to 80% | –
12 | CCCOc1cncc(C2=CC[C@H]3[C@@H]4CCC5=CC(=O)N(C)CC[C@]5(C)[C@H]4CC[C@]23C)c1 | 50 to 80% | –
13 | C[C@]12CC[C@H](O)C[C@@H]1CC[C@@H]1[C@@H]2CC[C@]2(C)C(n3ccnn3)=CC[C@@H]12 | ≥ 80% | IC50 [2]: ≤ 11 nM
14 | C[C@]12CC[C@H]3[C@@H](CC[C@H]4CC(=O)NCC[C@@]43C)C1=CC=C2n1ccnn1 | 1 to 50% | –
15 | COc1cncc(C2=CC[C@H]3[C@@H]4CCC5=CC(=O)NCC[C@]5(C)[C@H]4CC[C@]23C)c1 | 50 to 80% | IC50 [2]: ≤ 11 nM
16 | CCc1cncc(C2=CC[C@H]3[C@@H]4CCC5=CCN(C)CC[C@]5(C)[C@H]4CC[C@]23C)c1 | 1 to 50% | –
17 | C[C@]12CCNC(=O)C=C1CC[C@@H]1[C@@H]2CC[C@]2(C)C(n3cnc4ccccc43)=CC[C@@H]12 | 1 to 50% | –
18 | C[C@]12CC(O)C[C@@H]1CC[C@@H]1[C@@H]2CC[C@]2(C)C(n3ccnn3)=CC[C@@H]12 (stereo not given in full) | ≤ 11% | IC50 [2]: 50 to 80 nM
19 | CCOc1cncc(C2=CC[C@H]3[C@@H]4CCC5N(C)C(=O)COC[C@]5(C)[C@H]4CC[C@]23C)c1 (stereo not given in full) | 1 to 50% | –
20 | COC1CC2[C@@H]3CC=C(n4ccnc4)[C@@]3(C)CC[C@@H]2[C@@]2(C)CCC3CC312 (single isomer, unassigned) | ≥ 80% | inhibition at 20 h [3]: 10 to 50%; IC50 [2]: ≤ 11 nM
21 | C[C@]12CC[C@@H](NC(=O)C3CC3)CC1=CC[C@H]1C3CC=C(c4cccnc4)[C@@]3(C)CC[C@@H]12 (single isomer, unassigned) | – | half-life at 1 µM [4]: 1 to 50 min; inhibition at 20 h [3]: ≥ 50%; IC50 [2]: ≤ 11 nM

More lines, main results first:

Row | inhibition at 0.01 µM [1] | SMILES | further results
22 | 1 to 50% | Cc1cncc(C2=CC[C@H]3[C@@H]4CCC5N(C)C(=O)COC[C@]5(C)[C@H]4CC[C@]23C)c1 (stereo not given in full) | –
23 | 1 to 50% | CCOc1cncc(C2=CC[C@H]3[C@@H]4CC[C@H]5CCCCC[C@]5(C)[C@H]4CC[C@]23C)c1 | –
24 | 1 to 50% | Cc1ccncc1C1=CC[C@H]2[C@@H]3CC[C@H]4CCCCC[C@]4(C)[C@H]3CC[C@]12C | –
25 | 50 to 80% | C[C@]12CCC(=O)NC[C@@H]1CC[C@@H]1[C@@H]2CC[C@]2(C)C(n3ccnc3)=CC[C@@H]12 | –
26 | 50 to 80% | C=Cc1cncc(C2=CC[C@H]3[C@@H]4CCN5C(=O)CCCC[C@]5(C)[C@H]4CC[C@]23C)c1 | IC50 [2]: ≤ 11 nM
27 | 50 to 80% | CCCOc1cncc(C2=CC[C@H]3[C@@H]4CCN5C(=O)CCCC[C@]5(C)[C@H]4CC[C@]23C)c1 | IC50 [2]: ≤ 11 nM
28 | 50 to 80% | C[C@]12CCNC(=O)CC[C@@H]1CC[C@@H]1[C@@H]2CC[C@]2(C)C(c3cccnc3)=CC[C@@H]12 | –
29 | 1 to 50% | C[C@]12CC[C@H]3[C@@H](CCN4CCCCC[C@]34C)[C@@H]1CC=C2c1cccnc1 | –
30 | 1 to 50% | Cc1cncc(C2=CC[C@H]3[C@@H]4CC[C@H]5CCCCC[C@]5(C)[C@H]4CC[C@]23C)c1 | –
31 | 50 to 80% | COc1cncc(C2=CC[C@H]3[C@@H]4CC[C@H]5CCCCC[C@]5(C)[C@H]4CC[C@]23C)c1 | –
32 | 1 to 50% | CN1CC=C2CC[C@@H]3[C@H](CC[C@]4(C)C(c5cccnc5)=CC[C@@H]34)[C@@]2(C)CC1 | IC50 [2]: ≤ 11 nM
33 | 1 to 50% | CCc1cncc(C2=CC[C@H]3[C@@H]4CC[C@H]5CCCCC[C@]5(C)[C@H]4CC[C@]23C)c1 | –
34 | 50 to 80% | Cc1cncc(C2=CC[C@H]3[C@@H]4CC[C@H]5CCOCC[C@]5(C)[C@H]4CC[C@]23C)c1 | IC50 [2]: ≤ 11 nM
35 | 1 to 50% | C[C@]12CC(=O)C[C@@H]1CC[C@@H]1[C@@H]2CC[C@]2(C)C(n3ccnn3)=CC[C@@H]12 | –
36 | 1 to 50% | COc1cncc(C2=CC[C@H]3[C@@H]4CCN5CCCCC[C@]5(C)[C@H]4CC[C@]23C)c1 | –
37 | 1 to 50% | C[C@]12CCCNC[C@@H]1CC[C@@H]1[C@@H]2CC[C@]2(C)C(n3ccnn3)=CC[C@@H]12 | –
38 | 1 to 50% | C[C@]12CCNCC[C@@H]1CC[C@@H]1[C@@H]2CC[C@]2(C)C(n3ccnn3)=CC[C@@H]12 | –
39 | 1 to 50% | CCc1cncc(C2=CC[C@H]3[C@@H]4CC=C5CCCC[C@]5(C)[C@H]4CC[C@]23C)c1 | –
40 | 1 to 50% | Cc1cncc(C2=CC[C@H]3[C@@H]4CCN5CCCCC[C@]5(C)[C@H]4CC[C@]23C)c1 | –
41 | 50 to 80% | COc1cncc(C2=CC[C@H]3[C@@H]4CC=C5CCCC[C@]5(C)[C@H]4CC[C@]23C)c1 | –
42 | 1 to 50% | C[C@]12CCCCC[C@@H]1CC[C@@H]1[C@@H]2CC[C@]2(C)C(c3cnccc3Cl)=CC[C@@H]12 | –
43 | 1 to 50% | COC1CC[C@@]2(C)[C@@H](CC[C@@H]3[C@@H]2CC[C@]2(C)C(n4ccnn4)=CC[C@@H]32)C1 (stereo not given in full) | –
44 | 50 to 80% | CCOc1cncc(C2=CC[C@H]3[C@@H]4CC[C@H]5CCOCC[C@]5(C)[C@H]4CC[C@]23C)c1 | –
45 | 1 to 50% | COC1CC[C@@]2(C)[C@@H](CC[C@@H]3[C@@H]2CC[C@]2(C)C(c4cncc(C)c4)=CC[C@@H]32)C1 (stereo not given in full) | –
46 | 1 to 50% | COC1CC[C@@]2(C)[C@@H](CC[C@@H]3[C@@H]2CC[C@]2(C)C(c4cccnc4)=CC[C@@H]32)C1 (stereo not given in full) | –
47 | 1 to 50% | C[C@]12CCCCC[C@@H]1CC[C@@H]1[C@@H]2CC[C@]2(C)C(c3cccnc3)=CC[C@@H]12 | –
48 | 1 to 50% | C[C@]12CCC(=O)NC[C@@H]1CC[C@@H]1[C@@H]2CC[C@]2(C)C(n3ccnn3)=CC[C@@H]12 | –
49 | 1 to 50% | Cc1cncc(C2=CC[C@H]3[C@@H]4CCC5=CN(C)CCC[C@]5(C)[C@H]4CC[C@]23C)c1 | –
50 | 50 to 80% | Cc1cncc(C2=CC[C@H]3[C@@H]4CC=C5CCCC[C@]5(C)[C@H]4CC[C@]23C)c1 | –

Reference: ChEMBL document CHEMBL3882724 (2013)
